According to patent US20220087996A1, “Histone acetylase p300 inhibitor and use thereof” (HINOVA PHARMACEUTICALS INC., priority 2018, published 2022):
Read-outs that look alike come from different tables or passages of the source.

Tests used:
[1] = tested on: CWR22RV1 cells; assay: Inhibition of proliferation of CWR22RV1 cells (CCK-8); assay type: cell-based, human; conditions: Homo sapiens, CWR22Rv1, 144 h, 6 days culture
Outline: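 Proliferation read-out was CCK-8 absorbance at 450 nm after 2.5 h, following 6-day culture with compound. Each well held 1500 CWR22RV1 cells; the 3-fold, 9-point series started at a final 10 μM in 0.1% DMSO. Dose-response-inhibition fit gave the IC50.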

[2] = tested on: VCAP; assay: Inhibition of proliferation of VCAP cells; assay type: cell-based; conditions: Homo sapiens; Prostate cancer cell line VCAP; read-out: IC50 against VCAP
Procedure: (§1) 1) CWR22RV1 cells were subcultured in cell culture medium, and the cells in good growth condition were seeded in a 96-well plate, 80 μL for each well, and the cell number in each well was 1500. The plate was incubated overnight in a 37° C., 5% CO2 cell incubator. 2) The drug was prepared as 30 mM stock solution with dimethyl sulfoxide (DMSO). Prior to use, the stock solution was diluted 3 times with DMSO, and then further diluted as 3-fold gradient to obtain 9 concentration gradients. Then, each concentration of compound was diluted 200 times with the culture solution (ensuring that the DMSO concentration in the culture system was 0.1%), and two replicate wells were set for each concentration. 20 μL of diluted compound solution was added to the cell culture well (with final concentrations of 10 μM, 3.3 μM. 1.1 μM . . . ), and the plate was gently shaken to mix. In addition, 3 negative control wells containing only cells and 3 blank control wells containing only culture medium were included (6 wells were each added 20 μL DMSO diluted 200 times with culture medium). 2. Result detection: (1) After culturing for 6 days, 10 μL CCK-8 was added to each well, and the plate was continually cultured in a 37° C., 5% CO2 cell incubator for 2.5 h. (2) The absorbance (OD value) was detected at 450 nm using a multifunctional microplate reader. (3) The data were analyzed by Dose-response-inhibition equation in the software GraphPad Prism6, and the IC50 value was obtained.
(§2) Using the same method as Experimental example 2, CWR22RV1 cells were replaced with tumor cells in Table 3, and the IC50 (nM) of the compound according to the present invention against the activity of these tumor cells was tested and calculated.

[3] = tested on: LNCAP-AR; assay: Inhibition of proliferation of LNCAP-AR cells; assay type: cell-based; conditions: Prostate cancer cell line LNCAP-AR; read-out: IC50 against LNCAP-AR
Procedure: as §1, §2

[4] = tested on: LNCAP; assay: Inhibition of proliferation of LNCAP cells; assay type: cell-based; conditions: Homo sapiens; Prostate cancer cell line LNCAP; read-out: IC50 against LNCAP
Procedure: as §1, §2

[5] = tested on: MOLT-4; assay: Inhibition of proliferation of MOLT-4 cells; assay type: cell-based; conditions: Homo sapiens; Leukemia cell line MOLT-4; read-out: IC50 against MOLT-4
Procedure: as §1, §2

[6] = tested on: TALL-1; assay: Inhibition of proliferation of TALL-1 cells; assay type: cell-based; conditions: Homo sapiens; Leukemia cell line TALL-1; read-out: IC50 against TALL-1
Procedure: as §1, §2

[7] = tested on: HEL; assay: Inhibition of proliferation of HEL cells; assay type: cell-based; conditions: Homo sapiens; Leukemia cell line HEL; read-out: IC50 against HEL
Procedure: as §1, §2

[8] = tested on: ATN-1; assay: Inhibition of proliferation of ATN-1 cells; assay type: cell-based; conditions: Homo sapiens; Leukemia cell line ATN-1; read-out: IC50 against ATN-1
Procedure: as §1, §2

[9] = tested on: MOLM-16; assay: Inhibition of proliferation of MOLM-16 cells; assay type: cell-based; conditions: MOLM16; Leukemia cell line MOLM-16; read-out: IC50 against MOLM-16
Procedure: as §1, §2

[10] = tested on: OCI-AML3; assay: Inhibition of proliferation of OCI-AML3 cells; assay type: cell-based; conditions: Homo sapiens, OCI-AML-3; Leukemia cell line OCI-AML3; read-out: IC50 against OCI-AML3
Procedure: as §1, §2

[11] = tested on: MT-2; assay: Inhibition of proliferation of MT-2 cells; assay type: cell-based; conditions: Homo sapiens, MT2; Leukemia cell line MT-2; read-out: IC50 against MT-2
Procedure: as §1, §2

[12] = tested on: Pfeiffer; assay: Inhibition of proliferation of Pfeiffer cells; assay type: cell-based; conditions: Homo sapiens; Lymphoma cell line Pfeiffer; read-out: IC50 against Pfeiffer
Procedure: as §1, §2

[13] = tested on: KARPAS-422; assay: Inhibition of proliferation of KARPAS-422 cells; assay type: cell-based; conditions: Homo sapiens; Lymphoma cell line KARPAS-422; read-out: IC50 against KARPAS-422
Procedure: as §1, §2

[14] = tested on: Z-138; assay: Inhibition of proliferation of Z-138 cells; assay type: cell-based; conditions: Homo sapiens; Lymphoma cell line Z-138; read-out: IC50 against Z-138
Procedure: as §1, §2

[15] = tested on: RL; assay: Inhibition of proliferation of RL cells; assay type: cell-based; conditions: Homo sapiens; Lymphoma cell line RL; read-out: IC50 against RL
Procedure: as §1, §2

[16] = tested on: MM.1R; assay: Inhibition of proliferation of MM.1R cells; assay type: cell-based; conditions: Lymphoma cell line MM.1R; read-out: IC50 against MM.1R
Procedure: as §1, §2

[17] = tested on: MLMA; assay: Inhibition of proliferation of MLMA cells; assay type: cell-based; conditions: Lymphoma cell line MLMA; read-out: IC50 against MLMA
Procedure: as §1, §2

[18] = tested on: MAVER-1; assay: Inhibition of proliferation of MAVER-1 cells; assay type: cell-based; conditions: Homo sapiens, Maver1; Lymphoma cell line MAVER-1; read-out: IC50 against MAVER-1
Procedure: as §1, §2

[19] = tested on: KMS-12-PE; assay: Inhibition of proliferation of KMS-12-PE cells; assay type: cell-based; conditions: Homo sapiens; Lymphoma cell line KMS-12-PE; read-out: IC50 against KMS-12-PE
Procedure: as §1, §2

[20] = tested on: MDA-MB-453; assay: Inhibition of proliferation of MDA-MB-453 cells; assay type: cell-based; conditions: Homo sapiens; Breast cancer cell line MDA-MB-453; read-out: IC50 against MDA-MB-453
Procedure: as §1, §2

[21] = tested on: MCF-7; assay: Inhibition of proliferation of MCF-7 cells; assay type: cell-based; conditions: Homo sapiens, MCF7; Breast cancer cell line MCF-7; read-out: IC50 against MCF-7
Procedure: as §1, §2

[22] = tested on: BT-474; assay: Inhibition of proliferation of BT-474 cells; assay type: cell-based; conditions: Homo sapiens; Breast cancer cell line BT-474; read-out: IC50 against BT-474
Procedure: as §1, §2

[23] = tested on: DU4475; assay: Inhibition of proliferation of DU4475 cells; assay type: cell-based; conditions: Homo sapiens, DU-4475; Breast cancer cell line DU4475; read-out: IC50 against DU4475
Procedure: as §1, §2

[24] = tested on: HCC1428; assay: Inhibition of proliferation of HCC1428 cells; assay type: cell-based; conditions: Homo sapiens; Breast cancer cell line HCC1428; read-out: IC50 against HCC1428
Procedure: as §1, §2

[25] = tested on: EVSA-T; assay: Inhibition of proliferation of EVSA-T cells; assay type: cell-based; conditions: Homo sapiens; Breast cancer cell line EVSA-T; read-out: IC50 against EVSA-T
Procedure: as §1, §2

[26] = tested on: KMS-20; assay: Inhibition of proliferation of KMS-20 cells; assay type: cell-based; conditions: Multiple myeloma cell line KMS-20; read-out: IC50 against KMS-20
Procedure: as §1, §2

[27] = tested on: KMS-11; assay: Inhibition of proliferation of KMS-11 cells; assay type: cell-based; conditions: Homo sapiens; Multiple myeloma cell line KMS-11; read-out: IC50 against KMS-11
Procedure: as §1, §2

[28] = tested on: MM.1S; assay: Inhibition of proliferation of MM.1S cells; assay type: cell-based; conditions: Homo sapiens, MM1.S; Multiple myeloma cell line MM.1S; read-out: IC50 against MM.1S
Procedure: as §1, §2

[29] = tested on: NCI-H929; assay: Inhibition of proliferation of NCI-H929 cells; assay type: cell-based; conditions: Homo sapiens; Multiple myeloma cell line NCI-H929; read-out: IC50 against NCI-H929
Procedure: as §1, §2

[30] = tested on: OPM-2; assay: Inhibition of proliferation of OPM-2 cells; assay type: cell-based; conditions: Homo sapiens; Multiple myeloma cell line OPM-2; read-out: IC50 against OPM-2
Procedure: as §1, §2

## CNC(=O)Nc1cc2c(cc1F)[C@@]1(CC2)OC(=O)N(CC(=O)N2[C@@H](C)CC[C@H]2c2cc(F)c(F)c(F)c2)C1=O [Example 390, 1-((R)-6-fluoro-3′-(2-((2S,5S)-2-methyl-5-(3,4,5-trifluorophenyl)pyrrolidin-1-yl)-2-oxoethyl)-2′,4′-dioxo-2,3-dihydrospiro[indene-1,5′-oxazolidine]-5-yl)-3-methylurea]
[1]; read-out: IC50 against CWR22RV1 cells
  IC50: ≤ 500 nM
[1]; read-out: IC50 against CWR22RV1 cells (text)
  IC50: ≤ 500 nM
[2]
  IC50: ≤ 500 nM
[3]
  IC50: ≤ 500 nM
[4]
  IC50: ≤ 500 nM
[5]
  IC50: ≤ 500 nM
[6]
  IC50: ≤ 500 nM
[7]
  IC50: ≤ 500 nM
[8]
  IC50: ≤ 500 nM
[9]
  IC50: ≤ 500 nM
[10]
  IC50: ≤ 500 nM
[11]
  IC50: 500 to 2000 nM
[12]
  IC50: ≤ 500 nM
[13]
  IC50: ≤ 500 nM
[14]
  IC50: ≤ 500 nM
[15]
  IC50: ≤ 500 nM
[16]
  IC50: 500 to 2000 nM
[17]
  IC50: ≤ 500 nM
[18]
  IC50: ≤ 500 nM
[19]
  IC50: 500 to 2000 nM
[20]
  IC50: ≤ 500 nM
[21]
  IC50: ≤ 500 nM
[22]
  IC50: ≤ 500 nM
[23]
  IC50: 500 to 2000 nM
[24]
  IC50: ≤ 500 nM
[25]
  IC50: 500 to 2000 nM
[26]
  IC50: ≤ 500 nM
[27]
  IC50: ≤ 500 nM
[28]
  IC50: 500 to 2000 nM
[29]
  IC50: ≤ 500 nM
[30]
  IC50: ≤ 500 nM
